The target of the experiment is T1, human B1 (Homo sapiens, UniProt P46663).
T1 construct: host or cells: CHO-K1
T1 sequence (P46663 1-353): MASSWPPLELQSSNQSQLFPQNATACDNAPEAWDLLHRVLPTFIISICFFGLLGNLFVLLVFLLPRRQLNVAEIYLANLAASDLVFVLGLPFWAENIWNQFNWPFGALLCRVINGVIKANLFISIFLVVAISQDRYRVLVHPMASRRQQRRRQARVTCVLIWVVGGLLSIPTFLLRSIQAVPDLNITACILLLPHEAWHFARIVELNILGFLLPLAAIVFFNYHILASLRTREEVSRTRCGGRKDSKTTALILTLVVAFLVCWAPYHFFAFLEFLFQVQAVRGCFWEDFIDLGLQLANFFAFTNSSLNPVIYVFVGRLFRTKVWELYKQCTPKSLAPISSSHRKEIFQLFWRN
As to the kind of experiment: Calcium flux assay for Bradykinin B1 antagonist, CHO-K1 cell line expressing human B1. Particulars: CHO-K1 cells expressing human B1, agonist Lys-(Des-Arg)-Bradykinin, read-out: Potency (IC50 value against human B1). In kind it is cell-based. Summed up: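 CHO-K1 cells expressing human B1, loaded with 5 μM Fluo-4AM (2 h, 37° C) in HEPES buffer pH 7.4 with probenecid and 0.1% BSA, were preincubated 30 min at 25° C with compound (8 concentrations, triplicate, 1% DMSO) before B1 agonist addition. Ca2+ fluorescence monitored at 538 nm; background-normalized integrated values plotted against log antagonist concentration.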
(In general: Calcium assays in cells follow changes in intracellular calcium, usually with a dye or a luminescent sensor.)

Structures are written as SMILES. pIC50: −log10 of the molar value. Counter-ions that a name gives are not always drawn. Where only a bound is given, the exact number is not on record here.

One may read the pIC50 as the IC50 on a negative log10 scale, so that one unit is a factor of ten. Regarding `COc1cc(C)c(S(=O)(=O)N(Cc2nc(C(=O)N3CCC(N(C)Cc4ccc(OC)nc4)C3)co2)C2CC2)c(C)c1` (centres unmarked) [Ex 212, N-Cyclopropyl-4-methoxy-N-({4-[(3-{[(6-methoxypyridin-3-yl)methyl](methyl)amino}pyrrolidin-1-yl)carbonyl]-1,3-oxazol-2-yl}methyl)-2,6-dimethylbenzenesulfonamide trifluoroacetate], the pIC50 was 6.00 to 7.00.

As to `CN(CCc1ccc(C2=NCCN2)cc1)C(=O)c1coc(CN(C2CC2)S(=O)(=O)c2c(Cl)cccc2Cl)n1` [Ex 213, 2-({Cyclopropyl[(2,6-dichlorophenyl)sulfonyl]amino}methyl)-N-{2-[4-(4,5-dihydro-1H-imidazol-2-yl)phenyl]ethyl}-N-methyl-1,3-oxazole-4-carboxamide trifluoroacetate], the pIC50 was 6.00 to 7.00. The same measure for `CN(CCc1ccc(C2=NCCN2)cc1)C(=O)c1coc(CN(C2CC2)S(=O)(=O)c2ccc(Cl)cc2Cl)n1` [Ex 214, 2-({Cyclopropyl[(2,4-dichlorophenyl)sulfonyl]amino}methyl)-N-{2-[4-(4,5-dihydro-1H-imidazol-2-yl)phenyl]ethyl}-N-methyl-1,3-oxazole-4-carboxamide trifluoroacetate]: 6.00 to 7.00.

Turning to `CN(CCc1ccc(C2=NCCN2)cc1)C(=O)c1coc(CN(C2CC2)S(=O)(=O)c2c(Cl)cc(Cl)cc2Cl)n1` [Ex 215, 2-({Cyclopropyl[(2,4,6-trichlorophenyl)sulfonyl]amino}methyl)-N-{2-[4-(4,5-dihydro-1H-imidazol-2-yl)phenyl]ethyl}-N-methyl-1,3-oxazole-4-carboxamide trifluoroacetate], the pIC50 was 7.00 to 8.00. Consider `CN(Cc1ccc(CN2CCCC2)cc1)C(=O)c1coc(CN(C2CC2)S(=O)(=O)c2c(Cl)cc(Cl)cc2Cl)n1` [Ex 216, 2-({Cyclopropyl[(2,4,6-trichlorophenyl)sulfonyl]amino}methyl)-N-methyl-N-[4-(pyrrolidin-1-ylmethyl)benzyl]-1,3-oxazole-4-carboxamide trifluoroacetate], for which the pIC50 was 6.00 to 7.00. The same measure for `Cc1cc(S(=O)(=O)N(Cc2nc(C(=O)N(C)CCc3ccc(C4=NCCN4)cc3)co2)C2CC2)c(C)cc1Cl` [Ex 217, 2-({[(4-Chloro-2,5-dimethylphenyl)sulfonyl](cyclopropyl)amino}methyl)-N-{2-[4-(4,5-dihydro-1H-imidazol-2-yl)phenyl]ethyl}-N-methyl-1,3-oxazole-4-carboxamide trifluoroacetate]: 6.00 to 7.00.

Turning to `Cc1cc(S(=O)(=O)N(Cc2nc(C(=O)N(C)Cc3ccc(CN4CCCC4)cc3)co2)C2CC2)c(C)cc1Cl` [Ex 218, 2-({[(4-Chloro-2,5-dimethylphenyl)sulfonyl](cyclopropyl)amino}methyl)-N-methyl-N-[4-(pyrrolidin-1-ylmethyl)benzyl]-1,3-oxazole-4-carboxamide trifluoroacetate], the pIC50 is 6.00 to 7.00. The same measure for `Cc1cccc(Cl)c1S(=O)(=O)N(Cc1nc(C(=O)N(C)CCc2ccc(C3=NCCN3)cc2)co1)C1CC1` [Ex 219, 2-({[(2-Chloro-6-methylphenyl)sulfonyl](cyclopropyl)amino}methyl)-N-{2-[4-(4,5-dihydro-1H-imidazol-2-yl)phenyl]ethyl}-N-methyl-1,3-oxazole-4-carboxamide trifluoroacetate]: 7.00 to 8.00; for `Cc1cccc(Cl)c1S(=O)(=O)N(Cc1nc(C(=O)N(C)Cc2ccc(CN3CCCC3)cc2)co1)C1CC1` [Ex 220, 2-({[(2-Chloro-6-methylphenyl)sulfonyl](cyclopropyl)amino}methyl)-N-methyl-N-[4-(pyrrolidin-1-ylmethyl)benzyl]-1,3-oxazole-4-carboxamide trifluoroacetate]: 6.00 to 7.00. For the compound `CN(CCc1ccc(C2=NCCN2)cc1)C(=O)c1coc(CN(C2CC2)S(=O)(=O)c2ccccc2C(F)(F)F)n1` [Ex 221, 2-[(Cyclopropyl{[2-(trifluoromethyl)phenyl]sulfonyl}amino)methyl]-N-{2-[4-(4,5-dihydro-1H-imidazol-2-yl)phenyl]ethyl}-N-methyl-1,3-oxazole-4-carboxamide trifluoroacetate], the pIC50 is 6.00 to 7.00. With `CN(Cc1ccc(CN2CCCC2)cc1)C(=O)c1coc(CN(C2CC2)S(=O)(=O)c2ccccc2C(F)(F)F)n1` [Ex 222, 2-[(Cyclopropyl{[2-(trifluoromethyl)phenyl]sulfonyl}amino)methyl]-N-methyl-N-[4-(pyrrolidin-1-ylmethyl)benzyl]-1,3-oxazole-4-carboxamide trifluoroacetate], the pIC50 is 6.00 to 7.00. The result for `COc1cc(C)c(S(=O)(=O)N(Cc2nc(C(=O)N3CCC(O)(CN4CCN(C)CC4)CC3)co2)C2CC2)c(C)c1` [Ex 223, N-Cyclopropyl-N-{[4-({4-hydroxy-4-[(4-methylpiperazin-1-yl)methyl]piperidin-1-yl}carbonyl)-1,3-oxazol-2-yl]methyl}-4-methoxy-2,6-dimethylbenzenesulfonamide trifluoroacetate] reads above 8.00; that for `COc1cc(C)c(S(=O)(=O)N(Cc2nc(C(=O)N3CCC(O)(CN4CCOCC4)CC3)co2)C2CC2)c(C)c1` [Ex 224, N-Cyclopropyl-N-[(4-{[4-hydroxy-4-(morpholin-4-ylmethyl)piperidin-1-yl]carbonyl}-1,3-oxazol-2-yl)methyl]-4-methoxy-2,6-dimethylbenzenesulfonamide trifluoroacetate], 7.00 to 8.00; that for `COc1cc(C)c(S(=O)(=O)N(Cc2nc(C(=O)N(C)Cc3ccc4c(c3)CN(C)C4)co2)C2CC2)c(C)c1` [Ex 225, 2-({Cyclopropyl[(4-methoxy-2,6-dimethylphenyl)sulfonyl]amino}methyl)-N-methyl-N-[(2-methyl-2,3-dihydro-1H-isoindol-5-yl)methyl]-1,3-oxazole-4-carboxamide trifluoroacetate], 7.00 to 8.00.

Regarding `COc1cc(C)c(S(=O)(=O)N(Cc2nc(C(=O)N3CCN(c4cccnc4)CC3)co2)C2CC2)c(C)c1` [Ex 226, N-Cyclopropyl-4-methoxy-2,6-dimethyl-N-({4-[(4-pyridin-3-ylpiperazin-1-yl)carbonyl]-1,3-oxazol-2-yl}methyl)benzenesulfonamide], the pIC50 was 6.00 to 7.00. As for `COc1cc(C)c(S(=O)(=O)N(Cc2nc(C(=O)N3CCN(Cc4ccccn4)CC3)co2)C2CC2)c(C)c1` [Ex 227, N-Cyclopropyl-4-methoxy-2,6-dimethyl-N-[(4-{[4-(pyridin-2-ylmethyl)piperazin-1-yl]carbonyl}-1,3-oxazol-2-yl)methyl]benzenesulfonamide trifluoroacetate], the pIC50 was 6.00 to 7.00. The same measure for `COc1cc(C)c(S(=O)(=O)N(Cc2nc(C(=O)N3CCN(CCc4ccccn4)CC3)co2)C2CC2)c(C)c1` [Ex 228, N-Cyclopropyl-4-methoxy-2,6-dimethyl-N-[(4-{[4-(2-pyridin-2-ylethyl)piperazin-1-yl]carbonyl}-1,3-oxazol-2-yl)methyl]benzenesulfonamide trifluoroacetate]: 7.00 to 8.00; for `COc1cc(C)c(S(=O)(=O)N(Cc2nc(C(=O)N3CCC(C(=O)N4CCN(C)CC4)CC3)co2)C2CC2)c(C)c1` [Ex 229, N-Cyclopropyl-4-methoxy-2,6-dimethyl-N-{[4-({4-[(4-methylpiperazin-1-yl)carbonyl]piperidin-1-yl}carbonyl)-1,3-oxazol-2-yl]methyl}benzenesulfonamide trifluoroacetate]: 6.00 to 7.00. Consider `COc1cc(C)c(S(=O)(=O)N(Cc2nc(C(=O)N3CCN(CC4CCNCC4)CC3)co2)C2CC2)c(C)c1` [Ex 230, N-Cyclopropyl-4-methoxy-2,6-dimethyl-N-[(4-{[4-(piperidin-4-ylmethyl)piperazin-1-yl]carbonyl}-1,3-oxazol-2-yl)methyl]benzenesulfonamide trifluoroacetate], for which the pIC50 was above 8.00. Consider `COc1cc(C)c(S(=O)(=O)N(Cc2nc(C(=O)N3CCC(c4ccncc4)CC3)co2)C2CC2)c(C)c1` [Ex 231, N-Cyclopropyl-4-methoxy-2,6-dimethyl-N-({4-[(4-pyridin-4-ylpiperidin-1-yl)carbonyl]-1,3-oxazol-2-yl}methyl)benzenesulfonamide], for which the pIC50 was 7.00 to 8.00. The same measure for `COc1cc(C)c(S(=O)(=O)N(Cc2nc(C(=O)N3CCN(Cc4ccncc4F)CC3)co2)C2CC2)c(C)c1` [Ex 232, N-Cyclopropyl-N-{[4-({4-[(3-fluoropyridin-4-yl)methyl]piperazin-1-yl}carbonyl)-1,3-oxazol-2-yl]methyl}-4-methoxy-2,6-dimethylbenzenesulfonamide trifluoroacetate]: 6.00 to 7.00. The same measure for `COc1cc(C)c(S(=O)(=O)N(Cc2nc(C(=O)N3CCN(Cc4c(Cl)cncc4Cl)CC3)co2)C2CC2)c(C)c1` [Ex 233, N-Cyclopropyl-N-{[4-({4-[(3,5-dichloropyridin-4-yl)methyl]piperazin-1-yl}carbonyl)-1,3-oxazol-2-yl]methyl}-4-methoxy-2,6-dimethylbenzenesulfonamide trifluoroacetate]: 7.00 to 8.00; for `COc1cc(C)c(S(=O)(=O)N(Cc2nc(C(=O)N3CCN(Cc4ccc(F)nc4)CC3)co2)C2CC2)c(C)c1` [Ex 234, N-Cyclopropyl-N-{[4-({4-[(6-fluoropyridin-3-yl)methyl]piperazin-1-yl}carbonyl)-1,3-oxazol-2-yl]methyl}-4-methoxy-2,6-dimethylbenzenesulfonamide trifluoroacetate]: 6.00 to 7.00.

(Values after patent publication US8623859B2, “Bradykinin B1 antagonists” (Evotec AG, priority 2008, dated 2014).)
